From ChEMBL document CHEMBL1681640, “Serendipitous discovery of a new class of agonists for the melanocortin 1 and 4 receptors and a new class of cyclophanes” (Bioorg Med Chem Lett, 2011) come the findings set out here.

Activity calls are given as the source filed them. The calls are words filed in the database; no cut-off is given here.

Assay [1] concerns the target T1, Melanocyte-stimulating hormone receptor (Homo sapiens, UniProt Q01726). In words: Agonist activity at human MC1 receptor expressed in BHK cells assessed as stimulation of agonist-induced cAMP accumulation. The assay is classed as functional, cell-based. Background: Cyclic AMP is a second messenger, typically raised through Gs and lowered through Gi signalling.
Target sequence in this assay (Q01726 whole entry): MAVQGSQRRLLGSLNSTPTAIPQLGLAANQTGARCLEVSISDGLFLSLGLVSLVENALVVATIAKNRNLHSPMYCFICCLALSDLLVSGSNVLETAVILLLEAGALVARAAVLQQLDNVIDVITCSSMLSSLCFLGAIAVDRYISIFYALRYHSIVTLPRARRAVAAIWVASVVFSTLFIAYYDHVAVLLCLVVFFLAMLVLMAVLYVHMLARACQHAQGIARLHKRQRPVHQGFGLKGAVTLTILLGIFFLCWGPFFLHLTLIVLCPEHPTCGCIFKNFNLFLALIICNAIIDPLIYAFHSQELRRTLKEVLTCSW
Assay [2] addresses T1, Melanocyte-stimulating hormone receptor. Briefly: Agonist activity at human MC1 receptor expressed in BHK cells assessed as stimulation of agonist-induced cAMP accumulation relative to agonist. The assay is classed as functional, cell-based.
Target sequence in this assay (Q01726 whole entry, looked up): as the sequence (Q01726 whole entry) above
The subject of the next assay is Rattus norvegicus. Briefly: Reduction in food intake in Sprague-Dawley rat at 0.1 to 1 mg/kg, ip for first 3 hrs. Format: functional, organism-based.
The target in assay [3] is T2, Melanocortin receptor 4 (Homo sapiens, UniProt P32245). Briefly: Inhibition of human MC4 receptor expressed in BHK cells in presence of SHU9119 receptor antagonist.
Target sequence in this assay (P32245 whole entry, looked up): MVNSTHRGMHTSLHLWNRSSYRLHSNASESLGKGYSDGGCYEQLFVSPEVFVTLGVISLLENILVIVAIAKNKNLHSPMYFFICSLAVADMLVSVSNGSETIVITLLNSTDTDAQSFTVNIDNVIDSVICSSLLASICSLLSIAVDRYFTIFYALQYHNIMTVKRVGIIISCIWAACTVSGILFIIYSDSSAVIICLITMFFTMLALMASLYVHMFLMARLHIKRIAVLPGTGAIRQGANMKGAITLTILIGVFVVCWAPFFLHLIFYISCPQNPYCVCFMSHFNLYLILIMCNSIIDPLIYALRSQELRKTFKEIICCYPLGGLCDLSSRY
The target in assay [4] is T2, Melanocortin receptor 4. In words: Displacement of [125I]NDP-alpha-MSH from human MC4 receptor expressed in BHK cells. Format: cell-based. A general note: In a radioligand displacement assay an active substance lowers the binding of a labelled ligand.
Target sequence in this assay (P32245 whole entry): as the sequence (P32245 whole entry, looked up) above
Assay [5] deals with T1, Melanocyte-stimulating hormone receptor. In words: Displacement of [125I]NDP-alpha-MSH from human MC1 receptor expressed in BHK cells. The assay is classed as cell-based.
Target sequence in this assay (Q01726 whole entry): as the sequence (Q01726 whole entry) above
In assay [6] the target is T3, Melanocortin receptor 5 (Homo sapiens, UniProt P33032). Briefly: Agonist activity at human MC5 receptor expressed in BHK cells assessed as stimulation of agonist-induced cAMP accumulation. Format: functional, cell-based.
Assay [7] addresses T3, Melanocortin receptor 5. In words: Displacement of [125I]NDP-alpha-MSH from human MC5 receptor expressed in BHK cells. Format: cell-based.
In assay [8] the target is T2, Melanocortin receptor 4. In words: Agonist activity at human MC4 receptor expressed in BHK cells assessed as stimulation of agonist-induced cAMP accumulation. The assay is classed as functional, cell-based.
Target sequence in this assay (P32245 whole entry): as the sequence (P32245 whole entry, looked up) above
Assay [9] has as its target T4, Melanocortin receptor 3 (Homo sapiens, UniProt P41968). Briefly: Displacement of [125I]NDP-alpha-MSH from human MC3 receptor expressed in BHK cells. Format: cell-based.
For assay [10], the target named is T2, Melanocortin receptor 4. In words: Agonist activity at human MC4 receptor expressed in BHK cells assessed as stimulation of agonist-induced cAMP accumulation relative to agonist. The assay is classed as functional, cell-based.
Target sequence in this assay (P32245 whole entry): as the sequence (P32245 whole entry, looked up) above
In assay [11] the target is T4, Melanocortin receptor 3. Briefly: Agonist activity at human MC3 receptor expressed in BHK cells assessed as stimulation of agonist-induced cAMP accumulation. Format: functional, cell-based.

T4 sequence (P41968 whole entry): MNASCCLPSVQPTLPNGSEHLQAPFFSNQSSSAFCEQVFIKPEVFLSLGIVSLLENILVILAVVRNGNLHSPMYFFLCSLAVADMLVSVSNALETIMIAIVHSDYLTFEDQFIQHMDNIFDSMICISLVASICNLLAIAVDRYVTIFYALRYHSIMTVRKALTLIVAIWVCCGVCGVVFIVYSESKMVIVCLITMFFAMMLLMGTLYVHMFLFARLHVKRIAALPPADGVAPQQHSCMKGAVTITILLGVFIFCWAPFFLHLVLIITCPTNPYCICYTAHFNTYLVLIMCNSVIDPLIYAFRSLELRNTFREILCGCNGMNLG
T3 sequence (P33032 whole entry): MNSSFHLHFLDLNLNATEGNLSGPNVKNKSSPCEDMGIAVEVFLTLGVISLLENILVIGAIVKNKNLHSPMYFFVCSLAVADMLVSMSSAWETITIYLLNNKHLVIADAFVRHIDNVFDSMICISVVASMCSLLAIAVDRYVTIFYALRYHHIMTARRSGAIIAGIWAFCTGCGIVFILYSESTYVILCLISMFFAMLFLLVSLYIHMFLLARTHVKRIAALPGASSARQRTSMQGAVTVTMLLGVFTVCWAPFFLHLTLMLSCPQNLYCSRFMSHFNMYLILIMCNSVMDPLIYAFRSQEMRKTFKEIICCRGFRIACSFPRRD

Turning to `COCC(=O)N[C@H]1Cc2ccc(OC)c(c2)Cc2ccc(cc2)Oc2cccc(c2)CN(CCCN2CCN(CCCN)CC2)C1=O`, the concentration for a half-maximal effect (EC50) was 16 nM in assay [1], over 10000 nM at Melanocortin receptor 5 [6], 466 nM at Melanocortin receptor 4 [8] and over 10000 nM at Melanocortin receptor 3 [11]. Besides, the results for the maximal effect (Emax) (in assay [2]; on Melanocortin receptor 4 [10]) were 83% and 61%, respectively. In addition, in the assay on Rattus norvegicus, the result was Active. At Melanocortin receptor 4 [3], the inhibition result is “Active”. In addition, the Ki worked out at 392 nM at Melanocortin receptor 4 [4], 116 nM in [5], 388 nM on Melanocortin receptor 5 [7] and 1180 nM on Melanocortin receptor 3 [9].
In the case of `COCC(=O)N[C@H]1Cc2cc3c(c(c2)Cc2ccc(cc2)Oc2cccc(c2)CN(CCCN2CCN(CCCN)CC2)C1=O)OCOC3`, the EC50 in assay [1] is 12 nM; on Melanocortin receptor 5 [6], over 10000 nM; at Melanocortin receptor 4 [8], 697 nM; on Melanocortin receptor 3 [11] it was over 10000 nM. Moreover, the values for the Emax (in assay [2]; on Melanocortin receptor 4 [10]) were 85% and 98%, respectively. Besides, the inhibition entry on Melanocortin receptor 4 [3] was “Active”. The inhibition constant Ki on Melanocortin receptor 4 [4] turned out to be 403 nM; in assay [5] it was 328 nM; on Melanocortin receptor 5 [7], 1530 nM; at Melanocortin receptor 3 [9], 4530 nM.

The term EC50 denotes the midpoint of the concentration-response curve. In general, Emax refers to the greatest response seen or fitted, relative to the assay's reference. Usually Ki stands for the dissociation constant of the complex between target and ligand, obtained from inhibition or displacement. A higher Ki goes with a looser hold on the target.
